The conditions of data set [1]: human, in vivo, iv; cited from earlier work.

Regarding `O=C([O-])c1ccccc1-c1c2ccc(=O)cc-2oc2cc([O-])ccc12.[Na+].[Na+]` [sodium fluorescein, Sodium fluorescein], the “in vivo release behaviour (fluorescence in urine)” value is listed as “long-term constant release”.

On to `Nc1nc(O)c2ncn(COC(CO)CO)c2n1` [Ganciclovir], for which the “patients experiencing bone marrow toxicity resulting in neutropenia” value in data set [1] is recorded as 30-50%.

(Values after patent publication US11103460B2 (priority 2017, dated 2021).)
